Measurements published in patent publication US20120065187A1 (ALCON RESEARCH, LTD, priority 2008, published 2012).

Experiments:
[1] = target: T1, human H1 (Homo sapiens, UniProt P35367); experiment: In vitro histamine receptor cell-based assay (aequorin bioluminescence), H1 antagonism; details: CHO-K1 cells expressing human H1 and aequorin; histamine at EC80; read-out: H1 Antagonist EC50
T1 construct: host or cells: CHO-K1
How it was run: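 Stable CHO-K1 lines expressing human H1 or H4 (H4 with Gα16) plus mitochondrial aequorin, loaded 4 h with 5 μM coelenterazine-h at ~21 °C. Compounds preincubated 15 min, then histamine at EC80 added; bioluminescence decrease (AUC or max–min) expressed as % of positive control (diphenhydramine for H1, JNJ7777120 for H4, 10 μM).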

[2] = tested on: CD-1 mice; experiment: Model of scratching induced by histamine in CD-1 mice (assessment of H4 antagonism); type: in vivo; details: 30 mg/kg oral gavage 30 min before i.d. histamine; bouts counted for 20 minutes; female CD-1 mice
Description: Assessment of H4 Antagonism—Model of Scratching Induced by Histamine in CD-1 mice.
Female CD-1 mice (Charles River, Hollister, Calif.), approximately 10 weeks old were housed under controlled conditions (12 h light: 12 h dark, 21° C.) and allowed ad libitum access to food (Purina LabDiet 5P14) and water. Animals were deprived of access to food and water for 1 hour during the experimental itch protocol. All studies were performed under the guidelines of the Institutional Animal Care and Use Committee of Kalypsys, Inc.
At least 24 hours prior to study initiation, the hair on the rostral dorsum of the animal was clipped to clear a location for intradermal (i.d.) injection of pruritogen (histamine, dissolved in Dulbecco's PBS [pH 7.4] at a concentration of 10 μmol per 20 μL). Animals were dosed by oral gavage with vehicle (9/0.5/0.5/90 PEG-400/Tween-80/PVP-K30/1% carboxymethylcellulose in water) or test compounds (formulated as suspensions in vehicle) at 30 mg/kg in 200 μL by means of a 20 gauge 1.5″ feeding needle affixed to a 1 mL syringe. There were 8 mice per study group. Thirty minutes after oral dosing, animals were injected i.d. with 20 μL of histamine. Immediately afterward animals were placed into individual sections of a standard acrylic cage for observation, which was recorded digitally for a 20 minute period by video cameras (Panasonic SDR-S70/PC) for later review.
Quantitation of induced itch was measured as described previously (Bell, J. K. et al., British Journal of Pharmacology, 142:374-380, 2004) by counting the number of scratching bouts per animal in the 20 minute period after i.d. injection. A scratching bout was defined as three rapid scratch movements of the hind paw in the area of the injection site. Activity with the fore paws was deemed to be grooming and not scratching, and thus was not counted. All data were analyzed using GraphPad Prism (San Diego, Calif.) software, and reported as mean percentage reduction in scratching bouts versus vehicle control. The significance of antagonist effect on agonist-induced itching was analyzed using the nonparametric Mann-Whitney test with P values <0.05 being designated as statistically significant.
Data reported as NT refers to the example having been not tested. It is expected that these compounds when tested will be active and will have utility similar to those that have been tested. In Table 2 below, entries with superscript “1” are statistically significant according to the criteria outlined in the protocol above. Entries with superscript “2” are examples that have been tested on two separate days and the results reported below are the mean of the two experiments

[3] = target: T2, human H4 (Homo sapiens, UniProt Q9H3N8); experiment: In vitro histamine receptor cell-based assay (aequorin bioluminescence), H4 antagonism; details: CHO-K1 cells expressing human H4, aequorin and Gα16; histamine at EC80; read-out: H4 Antagonist EC50
T2 construct: host or cells: CHO-K1
How it was run: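 CHO-K1 cells stably expressing human H4, Gα16 and mitochondrial aequorin, loaded with 5 μM coelenterazine-h, preincubated 15 min at room temperature with compound, then challenged with histamine at EC80.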

T2 sequence (Q9H3N8 whole entry): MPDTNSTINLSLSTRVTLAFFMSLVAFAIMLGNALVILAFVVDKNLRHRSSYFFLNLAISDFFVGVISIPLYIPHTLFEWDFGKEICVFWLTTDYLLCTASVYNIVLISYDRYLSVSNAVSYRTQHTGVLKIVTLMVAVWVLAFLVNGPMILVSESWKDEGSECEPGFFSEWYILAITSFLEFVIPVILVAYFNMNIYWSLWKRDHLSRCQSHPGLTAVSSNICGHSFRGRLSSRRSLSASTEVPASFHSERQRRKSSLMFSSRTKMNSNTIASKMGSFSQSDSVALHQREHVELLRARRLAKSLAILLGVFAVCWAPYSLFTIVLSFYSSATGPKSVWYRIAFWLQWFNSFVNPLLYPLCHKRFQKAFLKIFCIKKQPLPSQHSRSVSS
T1 sequence (P35367 whole entry): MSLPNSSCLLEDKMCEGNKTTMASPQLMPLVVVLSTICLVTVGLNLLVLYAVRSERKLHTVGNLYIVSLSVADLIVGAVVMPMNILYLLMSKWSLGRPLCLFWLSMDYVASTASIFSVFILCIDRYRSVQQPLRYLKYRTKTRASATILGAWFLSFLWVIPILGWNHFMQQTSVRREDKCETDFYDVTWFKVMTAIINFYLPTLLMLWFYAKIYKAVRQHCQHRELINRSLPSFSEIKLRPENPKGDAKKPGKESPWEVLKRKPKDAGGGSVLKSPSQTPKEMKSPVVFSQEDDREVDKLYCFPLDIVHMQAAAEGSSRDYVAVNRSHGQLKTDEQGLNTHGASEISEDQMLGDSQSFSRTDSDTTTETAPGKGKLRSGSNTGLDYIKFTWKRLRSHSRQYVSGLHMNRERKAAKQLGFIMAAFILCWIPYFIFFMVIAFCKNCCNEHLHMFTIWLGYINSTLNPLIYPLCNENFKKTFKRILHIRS

Row | Structure (SMILES) | EC50 [1] [µM] | Scratching Bouts (% change from vehicle control) [2] | EC50 [3] [µM]
1 | CN1CCN(c2nc3ccc(Cl)cc3n3cnnc23)CC1 [Example 55, 8-chloro-4-(4-methylpiperazin-1-yl)-[1,2,4]triazolo[4,3-a]quinoxaline] | > 10 | −65^1,2% | < 10
2 | Clc1ccc2nc(N3CCNCC3)c3nncn3c2c1 [Example 57, 8-chloro-4-(piperazin-1-yl)-[1,2,4]triazolo[4,3-a]quinoxaline] | > 10 | −66^1% | < 10
